Results taken from patent US20230399320A1, “NOVEL CAPSID ASSEMBLY INHIBITOR” (Pelemed Co., Ltd., priority 2020, published 2023).
Like-named read-outs stand apart in the source and are kept apart here.

Legend:
[1] = target: T1, Cp149 (truncated form of a HBV core protein) (Hepatitis B virus genotype D subtype ayw, UniProt P03146); test: Protein based assay: immunoblot analysis of in vitro HBV capsid assembly; assay type: biochemical; conditions: for inhibition at 10 µM: read-out: Protein based assay (% inhibition, 10 μM); for inhibition at 0.1 µM: read-out: Protein based assay (% inhibition), 0.1 μM; for inhibition at 1 µM: read-out: Protein based assay (% inhibition), 1 μM
T1 construct: Cp149 (amino acids 1-149) is a truncated form of a HBV core protein; histidine tag (cleaved yes); made in house; host or cells: Escherichia coli BL21(DE3)
Procedure: Cp149 (amino acids 1-149) is a truncated form of a HBV core protein. It was expressed in Escherichia coli, and the expressed protein was purified. The recombinant Cp149 was expressed in E. coli BL21(DE3) cells cultured in LB medium at 37° C. When the culture reached an OD600 of 0.7 to 0.8, expression of the culture was induced with 0.5 mM isopropyl-β-d-thiogalactopyranoside and the culture was cooled to 16° C. After 16 hours, the cells were harvested, flash-frozen in liquid nitrogen, and stored at −80° C. To purify Cp149, thawed cells were resuspended in lysis buffer (20 mM Tris-HCl pH 9.0, 200 mM NaCl, 10 mM imidazole, 10 μg per mL DNaseI, 1 mM phenylmethylsulfonyl fluoride), and treated with ultrasonic waves. The supernatant was loaded onto Ni-NTA affinity resin. Proteins were eluted using a 20 mM to 500 mM imidazole gradient dissolved in lysis buffer. After removing the histidine tag with thrombin, the protein was further purified by HiTrap Q anion exchange chromatography (17115401, GE Healthcare).
To determine the effect on in vitro Cp149 assembly, compounds of the present invention were added to the Cp149-containing suspension. The final concentration of Cp149 was 1 mg per mL, and the compounds of the present invention were added at concentrations of 0.1 to 10 μM. The suspension was mixed with reaction buffer (150 mM HEPES, pH 7.5, 15 mM NaCl) added in a 2:1 ratio. In vitro assembly was performed at 37° C. for 1 hour, and HBV capsid was detected by immunoblot analysis using an anti-HBV core antibody (1:2000, B0586, Dako).

HBV DNA = test: Quantitative PCR for measuring HBV DNA in cells (HBV DNA quantification); assay type: cell-based
Procedure: After treating cells with the indicated compounds, HBV DNA secreted into the medium and intracellular HBV DNA were extracted, purified, and quantified by quantitative PCR. To isolate the secreted HBV DNA, the culture medium was recovered and centrifuged at 15,000×g to remove debris. The medium was diluted 1:1 with phosphate-buffered saline (PBS), and 1 M NaOH solution was added to a final concentration of 0.1 M. The mixture was incubated at 37° C. for 1 hour. The protein was denatured by adding 2M Tris-HCl solution (pH 7.5) to a final concentration of 0.2 M and incubating at 98° C. for 5 minutes. The protein precipitation was removed by centrifugation at 15,000×g, and the supernatant was subjected to PCR with HBV DNA primer and probe sets:
Forward: 5′-[…]-3′, Reverse: 5′-[…]-3′, Probe: 5′-[…]-3′.

[2] = Hepatitis B virus; read-out: HBV DNA quantification (IC50 μM)
[3] = Hepatitis B virus, read-out: HBV DNA quantification (IC50 μM)

T1 sequence (P03146 1-149): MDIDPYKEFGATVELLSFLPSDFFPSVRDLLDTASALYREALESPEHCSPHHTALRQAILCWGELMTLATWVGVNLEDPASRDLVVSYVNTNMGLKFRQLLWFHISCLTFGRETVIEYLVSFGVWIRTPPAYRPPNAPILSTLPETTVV

CSc1nc(NCCNC(=O)c2ccc(F)cc2)cc(Nc2ccc(N3CCOCC3)cc2)n1 [Compound 4c, 4-fluoro-N-(2-(2-(methylthio)-6-(4-morpholinophenylamino)pyrimidin-4-ylamino)ethyl)benzamide]
inhibition at 10 µM [1]: 0%
IC50 (HBV DNA; [2]): > 10 µM

CC(C)(C)OC(=O)N1CCN(c2cc(Nc3ccc(F)c(F)c3)nc(S(C)(=O)=O)n2)CC1 [Compound 22g, tert-butyl 4-(6-(3,4-difluorophenylamino)-2-(methylsulfonyl)pyrimidin-4-yl)piperazine-1-carboxylate]
inhibition at 10 µM [1]: 84%
IC50 (HBV DNA; [3]): 0.658 µM

COc1ncccc1C(=O)NCCNc1cc(Nc2ccccc2)nc([S+](C)[O-])n1 (stereo not shown) [Compound 9a, 2-methoxy-N-(2-(2-(methylsulfinyl)-6-(phenylamino)pyrimidin-4-ylamino)ethyl)nicotinamide]
inhibition at 0.1 µM [1]: 14%
inhibition at 1 µM [1]: 83%
IC50 (HBV DNA; [3]): 0.484 µM

CS(=O)(=O)c1nc(Nc2ccc(F)cc2)cc(N2CCNCC2)n1 [Compound 26a, N-(4-fluorophenyl)-2-(methylsulfonyl)-6-(piperazin-1-yl)pyrimidin-4-amine]
inhibition at 10 µM [1]: 86%
IC50 (HBV DNA; [2]): 0.962 µM

C[S+]([O-])c1nc(NCCNC(=O)c2ccc(F)cc2)cc(Nc2ccc(N3CCOCC3)cc2)n1 (stereo not shown) [Compound 5c, 4-fluoro-N-(2-(2-(methylsulfinyl)-6-(4-morpholinophenylamino)pyrimidin-4-ylamino)ethyl)benzamide]
inhibition at 10 µM [1]: 0%
IC50 (HBV DNA; [2]): > 10 µM

CC(C)(C)OC(=O)N1CCN(c2cc(Nc3ccc(F)cc3)nc(S(C)(=O)=O)n2)CC1 [Compound 22a, tert-butyl 4-(6-(4-fluorophenylamino)-2-(methylsulfonyl)pyrimidin-4-yl)piperazine-1-carboxylate]
inhibition at 10 µM [1]: 68%
IC50 (HBV DNA; [3]): 0.831 µM

CC(C)(C)OC(=O)N1CCN(c2cc(Nc3ccc(Cl)cc3)nc(S(C)(=O)=O)n2)CC1 [Compound 22c, tert-butyl 4-(6-(4-chlorophenylamino)-2-(methylsulfonyl)pyrimidin-4-yl)piperazine-1-carboxylate]
inhibition at 10 µM [1]: 68%
IC50 (HBV DNA; [3]): 0.577 µM

COc1ncccc1C(=O)N1CCN(c2cc(Nc3ccc(N4CCOCC4)cc3)nc([S+](C)[O-])n2)CC1 (stereo not shown) [Compound 14, (2-methoxypyridin-3-yl)(4-(2-(methylsulfinyl)-6-(4-morpholinophenylamino)pyrimidin-4-yl)piperazin-1-yl)methanone]
inhibition at 10 µM [1]: 33%
IC50 (HBV DNA; [2]): > 10 µM

CS(=O)(=O)c1nc(Nc2ccc(F)c(Cl)c2)cc(N2CCC(N)CC2)n1 [Compound 26i, 6-(4-aminopiperidin-1-yl)-N-(3-chloro-4-fluorophenyl)-2-(methylsulfonyl)pyrimidin-4-amine]
inhibition at 0.1 µM [1]: 52%
inhibition at 1 µM [1]: 99%
IC50 (HBV DNA; [3]): 0.181 µM

COc1ncccc1C(=O)NCCNc1cc(Nc2ccc(F)cc2)nc([S+](C)[O-])n1 (stereo not shown) [Compound 9b, N-(2-(6-(4-fluorophenylamino)-2-(methylsulfinyl)pyrimidin-4-ylamino)ethyl)-2-methoxynicotinamide]
inhibition at 0.1 µM [1]: 32%
inhibition at 1 µM [1]: 83%
IC50 (HBV DNA; [2]): 0.21 µM

CS(=O)(=O)c1nc(Nc2cc(F)c(F)c(F)c2)cc(N2CCNCC2)n1 [Compound 26b, 2-(methylsulfonyl)-6-(piperazin-1-yl)-N-(3,4,5-trifluorophenyl)pyrimidin-4-amine]
inhibition at 0.1 µM [1]: 39%
inhibition at 1 µM [1]: 92%
IC50 (HBV DNA; [2]): 0.203 µM

COc1ncccc1C(=O)NCCNc1cc(Nc2ccc(Br)cc2)nc([S+](C)[O-])n1 (stereo not shown) [Compound 9d, N-(2-(6-(4-bromophenylamino)-2-(methylsulfinyl)pyrimidin-4-ylamino)ethyl)-2-methoxynicotinamide]
inhibition at 0.1 µM [1]: 27%
inhibition at 1 µM [1]: 82%
IC50 (HBV DNA; [3]): 0.177 µM

CSc1nc(NCCNC(=O)c2ccc(Cl)cc2Cl)cc(Nc2ccc(N3CCOCC3)cc2)n1 [Compound 4d, 2,4-dichloro-N-(2-(2-(methylthio)-6-(4-morpholinophenylamino)pyrimidin-4-ylamino)ethyl)benzamide]
inhibition at 10 µM [1]: 0%
IC50 (HBV DNA; [3]): > 10 µM
